Results from patent publication US4808703A, “Novel 3-(4'-aminobutylamino) propylaminobleomycin derivatives” (Zaidan Hojin Biseibutsu Kagaku Kenku Kai, priority 1983, dated 1989).
Like-named read-outs stand apart in the source and are kept apart here.

Columns and labels:
[1] = tested on: Mycobacterium smegmatis ATCC 607; settings: copper-free bleomycin A2; standard for both Mycobacterium smegmatis ATCC607 and Bacillus subtilis; cited from earlier work
HeLa S3 cells = assay: Growth-inhibiting effect on HeLa S3 cell cultured; format: cell-based; settings: 3 days of incubation after addition
Procedure: (2) Growth-inhibiting effect on HeLa S3 cell cultured
A culture medium (10% calf serum-containing MEM) in a plastic dish was inoculated with HeLa S3 cells, and a bleomycin compound was added 2 days later. Incubation was continued for a further 3 days, and then the number of viable cells was counted. Growth inhibitory rate was calculated from the following equation:
Growth inhibitory rate (%)=100×(B-A)/(B-C)
where A is the final bacterial cell count 3 days after addition of the test sample, B is the final bacterial cell count in the control involving no addition of the test sample, and C is the bacterial cell count at the time of addition of the test sample.
ID50, the concentration producing a growth inhibitory rate of 50%, was estimated from the curve of the concentration of the test sample Vs. the growth inhibitory rate.

[2] = tested on: Mycobacterium smegmatis ATCC 607; assay: Antibacterial activity by the agar cylinder plate method, Mycobacterium smegmatis ATCC607; format: cell-based; settings: copper-containing compound, standard bleomycin A2 = 1,000 mcg potency/mg
From the text: (§1) (1) Antibacterial activity against Mycobacterium smegmatis ATCC607 and Bacillus subtilis
(§2) The above activity ws determined by the agar cylinder plate method using the above microorganisms.

ICR mice [3] = settings: mouse, in vivo
Procedure: (§3) ICR mice (male, 15-week-old) were used in groups of 10 each. The dose of each test compound was 5 mg/kg injected intraperitoneally once daily for 10 consecutive days. After the administration of the compound was completed, the animals were reared for 5 weeks for observation. Then, the animals were killed and autopsied so that the incidence and grade of pulmonary fibrosis were examined.
(§4) The incidence of pulmonary fibrosis was expressed as the number of mice developing pulmonary fibrosis in the group of mice administered the test compound. The grade of pulmonary fibrosis was expressed as the total score for pulmonary fibrosis divided by the total number of specimens.
(§5) 1 point: Accumulation of exudate in the alveoli, and fibrosis-like changes seen in the alveolar septum.
(§6) 2 points: Fibrosis seen at several sites.
4 points: Sporadic fibrosis.
(§7) 6 points: Extensive fibrosis (fibrosis seen in more than 170 of the total region).
(§8) The ratio in the table represents the ratio of the incidence of the test compound to that of bleomycin complex, or the ratio of the grade of the test compound to that of bleomycin complex.

Bacillus subtilis = assay: Antibacterial activity by the agar cylinder plate method, Bacillus subtilis; format: cell-based; settings: copper-containing compound, standard bleomycin A2 = 1,000 mcg potency/mg
From the text: as §1, §2

ICR mice [4] = assay: Pulmonary toxicity (fibrosis of the lung) in mice
Procedure: as §3, §4, §5, §6
4 points: Sporadic fibrosis.
as §7, §8

Molecule	Titer of the standard substance bleomycin A2 [1]	ID50 of copper-free compound (concentration producing a growth inhibitory rate of 50%) (HeLa S3 cells) [µg/mL]	Antibacterial titer of copper-compound [2] [mcg potency/mg]	Grade ratio (ICR mice [3])	Incidence ratio (ICR mice [3])	Incidence: Number of mice with pulmonary fibrosis/Number of mice in the treatment group (ICR mice [3])	Antibacterial titer of copper-compound (Bacillus subtilis) [mcg potency/mg]	Incidence: Number of mice with pulmonary fibrosis/Number of mice in the treatment group (ICR mice [4]; 5 mg/kg i.p. once daily for 10 days, autopsy after 5 weeks of observation, count)	Incidence (%) of pulmonary fibrosis (ICR mice [4]; 5 mg/kg i.p. once daily for 10 days, autopsy after 5 weeks of observation, percentage in parentheses) [%]	Grade: Total score for pulmonary fibrosis/Total specimens (ICR mice [4]; 5 mg/kg i.p. once daily for 10 days, autopsy after 5 weeks, scores 0, 1, 2, 4, 6 points, fraction)	Grade of pulmonary fibrosis (total score divided by total number of specimens) (ICR mice [4]; 5 mg/kg i.p. once daily for 10 days, autopsy after 5 weeks, scores 0, 1, 2, 4, 6 points, value in parentheses)	Grade ratio (ICR mice [4]; grade of the test compound to that of bleomycin complex)	Incidence ratio (ICR mice [4]; incidence of the test compound to that of bleomycin complex)
Cc1c(N)nc(C(CC(N)=O)NCC(N)C(N)=O)nc1C(=O)NC(C(=O)NC(C)C(O)C(C)C(=O)NC(C(=O)NCCc1nc(-c2nc(C(=O)NCCC[S+](C)C)cs2)cs1)C(C)O)C(OC1OC(CO)C(O)C(O)C1OC1OC(CO)C(O)C(OC(N)=O)C1O)c1cnc[nH]1 (stereo not drawn) [bleomycin A2]	1,000 mcg potency/mg	–	–	–	–	–	–	–	–	–	–	–	–
3-(4'-cycloundecanylmethylaminobutylamino)propylaminobleomycin [Compound 7]	–	0.16	24240	0.00	0.00	0/10	7330	–	–	–	–	–	–
CCCCCN(CCCCC)CCCCN(CCCCC)CCCNC(=O)c1csc(-c2csc(CCNC(=O)C(NC(=O)C(C)C(O)C(C)NC(=O)C(NC(=O)c3nc(C(CC(N)=O)NCC(N)C(N)=O)nc(N)c3C)C(OC3OC(CO)C(O)C(O)C3OC3OC(CO)C(O)C(OC(N)=O)C3O)c3cnc[nH]3)C(C)O)n2)n1 (stereo not drawn) [Compound 9, 3-{N--n-pentyl-N--[4'-bis(n-pentyl)aminobutyl]amino}propylaminobleomycin]	–	–	57408	–	–	–	3520	0/10	0	0/30	0	0.00	0.00
